Drawing on patent publication US10882854B2, “Heterocyclic compounds and use thereof” (National Health Research Institutes, priority 2017, dated 2021), this text covers IC50 for 43 molecules.

A value given as a limit tells only on which side of the number the result lay.

T1 sequence (P61073 whole entry): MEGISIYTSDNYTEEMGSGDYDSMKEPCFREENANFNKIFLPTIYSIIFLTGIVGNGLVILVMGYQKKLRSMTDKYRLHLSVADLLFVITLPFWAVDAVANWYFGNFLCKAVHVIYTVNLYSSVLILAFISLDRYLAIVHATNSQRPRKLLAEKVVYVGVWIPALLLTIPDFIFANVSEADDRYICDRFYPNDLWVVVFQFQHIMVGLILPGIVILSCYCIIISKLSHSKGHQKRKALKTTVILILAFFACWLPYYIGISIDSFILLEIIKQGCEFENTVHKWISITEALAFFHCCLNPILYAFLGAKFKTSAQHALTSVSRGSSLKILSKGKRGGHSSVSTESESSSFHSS

This experiment has as its target T1, human CXCR4 (Homo sapiens, UniProt P61073).
T1 construct: expressed in transfected cells; host or cells: HEK293 cells (membranes)
The experiment in a line: Inhibition of 125I-CXCL12 radioligand binding, membranes of human CXCR4-transfected HEK293 cells. Conditions: 0.16 nM 125I-CXCL12, 60 min at 30 °C, read-out: concentration required to inhibit binding of 125I-CXCL12 to CXCR4 by 50% (IC50). As for the experimental part: Binding competition between the compounds of Formula (I) and human CXCL12 was assessed using a radioligand binding assay as described below.
Membranes (2-4 μg) prepared from human CXCR4-transfected HEK293 cells in 40 μL of assay buffer (50 mM HEPES-NaOH, pH 7.4, 100 mM NaCl, 5 mM MgCl2, 1 mM CaCl2, 0.5% bovine serum albumin) were incubated with 20 μL of radio-labeled ^125I-CXCL12 (0.16 nM) and 20 μL of a test compound in an assay plate (Costar Corning, Cambridge, Mass.). After 60 minutes at 30° C., the incubation was terminated by transferring the resulting reaction mixture to a 96-well GF/B filter plate (Millipore Corp., Billerica, Mass.) and filtered via a manifold. The plate was washed with 100 μL of ice-cold wash buffer (50 mM HEPES-NaOH, pH 7.4, 100 mM NaCl) four times. The radioactivity bound to the filter was measured by Topcount (PerkinElmer Inc., Waltham, Mass.).
With `c1ccc2c(NC3CCNCC3)nc(NCc3cc(CCCNCCCNC4CCCCC4)[nH]n3)nc2c1` [Compound 9], the IC50 is under 50 nM. In the case of `c1ccc2c(NC3CCNCC3)nc(NCc3ncn(CCCNCCCNC4CCCCC4)n3)nc2c1` [Compound 11], the IC50 fell in the range of 50 to 100 nM. To `c1ccc2c(N3CCNCC3)nc(NCc3nnn(CCCNCCCNC4CCCCC4)n3)nc2c1` [Compound 12] belongs under 50 nM; to `Cc1cc(NC2CCNCC2)nc(NCc2noc(CCCNCCCNC3CCCCC3)n2)n1` [Compound 19], under 50 nM; to `CCc1cc(NC2CCNCC2)nc(NCc2nnc(CCCNCCCNC3CCCCC3)s2)n1` [Compound 25], under 50 nM. Turning to `CCc1cc(NC2CCNCC2)nc(NCc2nnc(CCCNCCCNC3CCCCC3)[nH]2)n1` [Compound 27], the IC50 was 50 to 100 nM.

Take `Cc1cc(NC2CCNCC2)nc(NCc2cc(CCCNCCCNC3CCCCC3)[nH]n2)n1` [Compound 28]: the IC50 was under 50 nM. Turning to `N[C@@H](CCC(=O)N1CCC(Nc2nc(NCCc3cn(CCCCNCCCNC4CCCCC4)cn3)nc3ccccc23)CC1)C(=O)O` [Compound 36], the IC50 lay within 100 to 1000 nM. With `Cc1cc(NC2CCN(C(=O)CCNCC(=O)O)CC2)nc(NCc2noc(CCCNCCCNC3CCCCC3)n2)n1` [Compound 43], the IC50 fell in the range of 50 to 100 nM. `Cc1cc(NC2CCN(C(=O)CCNCC(=O)O)CC2)nc(NCc2nnc(CCCNCCCNC3CCCCC3)o2)n1` [Compound 44]: the IC50 lay in the range of 100 to 1000 nM.

Regarding `N[C@@H](CCC(=O)NCCN1CCC(Nc2nc(NCc3nnc(CCCNCCCNC4CCCCC4)o3)nc3ccccc23)CC1)C(=O)NCCP(=O)(O)O` [Compound 51], the IC50 lay in the range of 100 to 1000 nM. Regarding `N[C@@H](CCC(=O)NCCN1CCC(Nc2nc(NCc3nnnn3CCCNCCCNC3CCCCC3)nc3ccccc23)CC1)C(=O)NCCP(=O)(O)O` [Compound 52], the IC50 lay in the range of 100 to 1000 nM. On to `c1cnc2nc(NCc3nnn(CCCNCCCNC4CCCCC4)n3)nc(NC3CCNCC3)c2c1` [Compound 53], for which the IC50 is 100 to 1000 nM. For the molecule `O=C(O)[C@@H](O)CCC(=O)N1CCC(Nc2nc(NCc3nc(CCCNCCCNC4CCCCC4)co3)nc3ccccc23)CC1` [Compound 54], the IC50 lay within 100 to 1000 nM.

Consider `c1nc2c(NCc3nnn(CCCNCCCNC4CCCCC4)n3)nc(N3CCNCC3)nc2[nH]1` [Compound 55], for which the IC50 is 100 to 1000 nM.

With `c1cc2c(NC3CCNCC3)nc(NCc3nnn(CCCNCCCNC4CCCCC4)n3)nc2s1` [Compound 56], the IC50 lay within 100 to 1000 nM. As for `Nc1cc(N2CCNCC2)nc(NCc2nnn(CCCNCCCNC3CCCCC3)n2)n1` [Compound 57], the IC50 is 100 to 1000 nM.

With `c1cc(NC2CCNCC2)nc(NCc2nnn(CCCNCCCNC3CCCCC3)n2)n1` [Compound 58], the IC50 lay in the range of 50 to 100 nM. On to `N[C@@H](CCC(=O)N1CCC(Nc2nc(NCCc3cn(CCCCNCCCNC4CCCCC4)cn3)nc3ccccc23)CC1)C(=O)OCc1ccccc1` [Compound 60], for which the IC50 was in the range of 100 to 1000 nM.

As to `CCc1cc(NC2CCN(C(=O)CCNCC(=O)O)CC2)nc(NCc2nnn(CCCNCCCNC3CCCCC3)n2)n1` [Compound 63], the IC50 was in the range of 100 to 1000 nM. Next, `CCc1cc(NC2CCN(C(=O)CCCNCC(=O)O)CC2)nc(NCc2nnn(CCCNCCCNC3CCCCC3)n2)n1` [Compound 64]: 100 to 1000 nM; `CCc1cc(NC2CCN(C(=O)CC[C@H](N)C(=O)O)CC2)nc(NCc2nnn(CCCNCCCNC3CCCCC3)n2)n1` [Compound 65]: 100 to 1000 nM; `CCc1cc(NC2CCN(C(=O)CC[C@H](N)C(=O)O)CC2)nc(NCc2nnc(CCCNCCCNC3CCCCC3)[nH]2)n1` [Compound 66]: 50 to 100 nM. In the case of `N[C@@H](CCC(=O)N1CCC(Nc2nc(NCc3nnnn3CCCNCCCNC3CCCCC3)nc3ccccc23)CC1)C(=O)O` [Compound 67], the IC50 lay within 100 to 1000 nM.

Consider `O=C(O)CNCCC(=O)N1CCC(Nc2nc(NCc3nnnn3CCCNCCCNC3CCCCC3)nc3ccccc23)CC1` [Compound 68], for which the IC50 lay within 100 to 1000 nM. On to `CCc1cc(NC2CCN(C(=O)CC[C@H](N)C(=O)O)CC2)nc(NCc2nnc(CCCNCCCNC3CCCCC3)s2)n1` [Compound 69], for which the IC50 is 100 to 1000 nM. Next, `CCc1cc(NC2CCN(C(=O)CCNCC(=O)O)CC2)nc(NCc2nnc(CCCNCCCNC3CCCCC3)s2)n1` [Compound 70]: 100 to 1000 nM; `Cc1cc(NC2CCNCC2)nc(NCc2ncn(CCCNCCCNC3CCCCC3)n2)n1` [Compound 71]: 100 to 1000 nM; `C1=NC(CNc2nc(NC3CCNCC3)c3ccccc3n2)=NC1CNCCCNC1CCCCC1` (stereo not shown) [Compound 72]: 50 to 100 nM. To `Cc1cc(NC2CCNCC2)nc(NCc2nc(CNCCCNC3CCCCC3)c[nH]2)n1` [Compound 73] belongs 50 to 100 nM.

Regarding `FC(F)(F)c1cnc(NCc2nnn(CCCNCCCNC3CCCCC3)n2)nc1NC1CCNCC1` [Compound 74], the IC50 fell in the range of 100 to 1000 nM. `Cc1cnc(NCc2nnn(CCCNCCCNC3CCCCC3)n2)nc1NC1CCNCC1` [Compound 75]: the IC50 is under 50 nM. As for `N[C@@H](CCC(=O)N1CCC(Nc2nc(NCc3cc(CCCNCCCNC4CCCCC4)n[nH]3)nc3ccccc23)CC1)C(=O)O` [Compound 76], the IC50 is 50 to 100 nM.

On to `N[C@@H](CCC(=O)N1CCC(Nc2nc(NCc3ncn(CCCNCCCNC4CCCCC4)n3)nc3ccccc23)CC1)C(=O)O` [Compound 77], for which the IC50 is 100 to 1000 nM.

Consider `O=C(O)[C@H]1CCCN1CCC(=O)N1CCC(Nc2nc(NCc3nnn(CCCNCCCNC4CCCCC4)n3)nc3ccccc23)CC1` [Compound 78], for which the IC50 fell in the range of 50 to 100 nM. In the case of `N[C@@H](CCC(=O)N1CCC(Nc2nc(NCc3nc(CNCCCNC4CCCCC4)c[nH]3)nc3ccccc23)CC1)C(=O)O` [Compound 79], the IC50 lay within 100 to 1000 nM. `CC(C)CC(NCCC(=O)N1CCC(Nc2nc(NCc3nnn(CCCNCCCNC4CCCCC4)n3)nc3ccccc23)CC1)C(=O)O` (stereo not shown) [Compound 80]: the IC50 lay within 100 to 1000 nM. For `Cc1cc(NC2CCN(C(=O)CCNCC(=O)O)CC2)nc(NCc2ncn(CCCNCCCNC3CCCCC3)n2)n1` [Compound 81], the IC50 lay in the range of 100 to 1000 nM. Consider `CCOC(=O)CNCCC(=O)N1CCC(Nc2cc(C)nc(NCc3cc(CCCNCCCNC4CCCCC4)n[nH]3)n2)CC1` [Compound 82], for which the IC50 was 50 to 100 nM. As to `Cc1cc(NC2CCN(C(=O)CCNCC(=O)O)CC2)nc(NCc2nc(CNCCCNC3CCCCC3)c[nH]2)n1` [Compound 83], the IC50 was 100 to 1000 nM. To `N[C@@H](CCC(=O)NCCN1CCC(Nc2nc(NCc3nc(CNCCCNC4CCCCC4)cs3)nc3ccccc23)CC1)C(=O)NCCP(=O)(O)O` [Compound 84] belongs 100 to 1000 nM.

In the case of `Cc1cnc(NCc2nnn(CCCNCCCNC3CCCCC3)n2)nc1NC1CCN(C(=O)CCNCC(=O)O)CC1` [Compound 85], the IC50 lay in the range of 100 to 1000 nM. Take `Cc1cnc(NCc2nnn(CCCNCCCNC3CCCCC3)n2)nc1NC1CCN(C(=O)CC[C@H](N)C(=O)O)CC1` [Compound 86]: the IC50 was in the range of 100 to 1000 nM.
